These results are taken from article PMC6906431, “Selective small molecule PARG inhibitor causes replication fork stalling and cancer cell death” (Nature Communications, 2019).

The experiment deals with T1, Human PARG (Homo sapiens, UniProt Q86W56).
T1 construct: The human PARG (hPARG) catalytic domain (residues 389–976) was cloned in pET28a (Novagen); His-tag (N); made in house; host or cells: E. coli Rosetta
Kind of experiment: Gel-based PARG activity assay. The experiment is classed as biochemical. How it is done: PARP1C (2 μM) is enzymatically auto-modified in a reaction containing the PARP1 DBD (2 μM), a 24 mer nicked DNA oligo (2 μM), and NAD^+ (300 μM) for 1 h at 37 °C, as described previously. Human PARG^389–976 (1 nM) was pre-incubated with compounds for 1 h at room temperature. The reaction was initiated by the addition of PARylated PARP1 (final concentration of 500 nM) and quenched after 30 min incubation at room temperature by adding SDS-PAGE sample buffer. The gel was visualized by sypro-ruby staining[18] and the retained PARylated PARP1C species were quantified using ImageJ[59]. PARylated PARP1C that migrates slower than unmodified PARP1C was quantified. […] The IC50 values were determined by fitting the dose-response data for each compound to a four-parameter logistic equation using SigmaPlot (Systat Software Inc.).
To test the specificity of JA2131, human PARG^389–976 (1 nM) was pre-incubated with JA2131 (5, 10, and 20 μM) in the presence and absence of 0.1% Triton-X 100 or 0.1 mg/ml BSA for 1 h at room temperature. The reaction was initiated, quenched, visualized, and quantified as described above. […]
PARG activity assay. […]
PARP1 (500 nM). The reaction was quenched after a 30 -minu te in cu ba tion a t roo m te mpe ra tu re by adding SDS-PA GE sa mp le bu f fe r. PARylated PARP1C runs as a smear on SDS -PAGE that is reduced to a single band by PARG treatment. […]
2). (b) Qu an t if ica t ion o f the dose-response PARG inhibition by JA2 -3 using the gel-based PARG activity assay. hPARG (1 nM) was preincubated with increasing concentrations (0.032 – 1 µM) of JA2-3 f o r 1 hour at room temperature before PARylated PARP1C (500 nM) was added. The reaction was quenched after a 30-minu te incubation at room temperature. PARylated PARP1C migrates slower than unmodified PARP1C and was quantified using ImageJ. […] The rate of the PARG-dependent signal loss in the TR-FRET PAR turnover assay is not equivalent to the steady-state rate of PAR turnover, because the TR-FRET assay can’t detect signal loss until the length of PAR chains become shorter than 7 ADP-ribose units. Therefore, we used the gel-based PARG activity assay to accurately determine the IC50 values throughout the manuscript .

T1 sequence (Q86W56 389-976): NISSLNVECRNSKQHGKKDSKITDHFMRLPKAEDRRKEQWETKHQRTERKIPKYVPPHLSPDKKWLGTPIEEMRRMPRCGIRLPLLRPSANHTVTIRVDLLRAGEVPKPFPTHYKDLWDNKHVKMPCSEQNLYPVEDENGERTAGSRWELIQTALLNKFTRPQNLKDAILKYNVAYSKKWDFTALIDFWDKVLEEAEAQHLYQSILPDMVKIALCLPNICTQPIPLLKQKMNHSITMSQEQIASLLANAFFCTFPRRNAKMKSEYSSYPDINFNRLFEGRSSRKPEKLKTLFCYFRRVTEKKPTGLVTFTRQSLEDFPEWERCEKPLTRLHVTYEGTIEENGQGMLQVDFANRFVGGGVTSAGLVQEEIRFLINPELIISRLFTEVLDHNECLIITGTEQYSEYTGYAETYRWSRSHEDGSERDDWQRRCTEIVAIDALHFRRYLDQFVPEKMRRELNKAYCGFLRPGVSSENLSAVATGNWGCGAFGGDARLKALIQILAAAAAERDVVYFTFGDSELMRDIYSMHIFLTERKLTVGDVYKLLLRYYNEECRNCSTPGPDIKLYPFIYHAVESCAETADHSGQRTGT

For orientation: inhibition means the drop in the measured response relative to a control, in per cent. By IC50 is commonly meant the concentration that inhibits the measured activity by half. Read a low IC50 as inhibition by little substance. As for `Cn1c(=S)c2[nH]c(SCCN3CCOCC3)nc2n(C)c1=O` [JA2131], the “potency difference JA2131 (6´-thiocarbonyl) vs JA2120 (6´-carbonyl)” value is “more than 50 fold”. Further, the “effect of detergent or nonspecific protein on PARG inhibition” value (JA2131 5, 10, 20 μM, 0.1% Triton-X 100 or 0.1 mg/ml BSA) is on record as “Neither the addition of Triton-X 100 nor BSA significantly altered the inhibitory potency”. In addition, the inhibition at 0.0488281 µM ([L] 0.0488281 uM) is 13.8%. Besides, the inhibition at 0.0976562 µM ([L] 0.0976562 uM) came out at 26.2%. The inhibition at 0.195312 µM ([L] 0.195312 uM) was 34.6%. In addition, for the setting “[L] 0.390625 uM”, the inhibition at 0.390625 µM was determined as 58.8%. For the same compound, the inhibition at 0.78125 µM ([L] 0.78125 uM) turned out to be 62.5%. In addition, the inhibition at 1.5625 µM ([L] 1.5625 uM) amounted to 75.5%. Also, under “[L] 3.125 uM”, the inhibition at 3.125 µM was found to be 84.3%. Besides, for the setting “[L] 6.25 uM”, the inhibition at 6.25 µM was found to be 98.7%. Also, for the setting “[L] 12.5 uM”, the inhibition at 12.5 µM is 99.5%. In addition, the inhibition at 25 µM ([L] 25 uM) came out at 104%. The inhibition at 50 µM ([L] 50 uM) amounted to 94%. This compound also yielded an IC50 (hPARG 1 nM, PARylated PARP1C 500 nM, 30 min) of 400 nM.
